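Tested at 5 concentrations; 48 h exposure; 96-well plates; endpoints linearly interpolated, else capped at highest concentration. GI50 is the concentration that inhibits growth by half. Definition used: TGI = concentration required for complete inhibition of growth.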
Columns and labels:
Experiment in all cases: NCI-60 cell line screen, 48 h
SF-295 CNS = test system: SF-295 CNS
SK-MEL-2 melanoma = test system: SK-MEL-2 melanoma
NCI-H226 lung = test system: NCI-H226 lung
HOP-92 NSCLC = test system: HOP-92 NSCLC
UACC-62 melanoma = test system: UACC-62 melanoma
786-0 renal = test system: 786-0 renal
CCRF-CEM leukemia = test system: CCRF-CEM leukemia
A498 renal = test system: A498 renal
NCI-H460 lung = test system: NCI-H460 lung
NCI/ADR-RES ovarian = test system: NCI/ADR-RES ovarian
U251 CNS = test system: U251 CNS
MCF7 breast = test system: MCF7 breast
BT-549 breast = test system: BT-549 breast
HS 578T breast = test system: HS 578T breast
KM12 colon = test system: KM12 colon
HCC-2998 colon = test system: HCC-2998 colon
DU-145 prostate = test system: DU-145 prostate
SNB-75 CNS = test system: SNB-75 CNS
MDA-MB-231 breast = test system: MDA-MB-231 breast
SK-MEL-28 melanoma = test system: SK-MEL-28 melanoma
OVCAR-8 ovarian = test system: OVCAR-8 ovarian
SF-268 CNS = test system: SF-268 CNS
CAKI-1 renal = test system: CAKI-1 renal
MDA-MB-435 = test system: MDA-MB-435
PC-3 prostate = test system: PC-3 prostate
COLO 205 colon = test system: COLO 205 colon
EKVX NSCLC = test system: EKVX NSCLC
T-47D breast = test system: T-47D breast
SF-539 CNS = test system: SF-539 CNS
HCT-15 colon = test system: HCT-15 colon
RPMI-8226 leukemia = test system: RPMI-8226 leukemia
UO-31 renal = test system: UO-31 renal
TK-10 renal = test system: TK-10 renal
SK-MEL-5 melanoma = test system: SK-MEL-5 melanoma
UACC-257 melanoma = test system: UACC-257 melanoma
HOP-62 NSCLC = test system: HOP-62 NSCLC
HL-60(TB) leukemia = test system: HL-60(TB) leukemia
IGROV1 ovarian = test system: IGROV1 ovarian
SK-OV-3 ovarian = test system: SK-OV-3 ovarian
RXF 393 renal = test system: RXF 393 renal
HCT-116 colon = test system: HCT-116 colon
NCI-H522 lung = test system: NCI-H522 lung
K-562 leukemia = test system: K-562 leukemia
ACHN renal = test system: ACHN renal
LOX IMVI melanoma = test system: LOX IMVI melanoma
M14 melanoma = test system: M14 melanoma
MALME-3M melanoma = test system: MALME-3M melanoma
OVCAR-5 ovarian = test system: OVCAR-5 ovarian
SN12C renal = test system: SN12C renal
SW-620 colon = test system: SW-620 colon
SR leukemia = test system: SR leukemia
OVCAR-4 ovarian = test system: OVCAR-4 ovarian
A549 NSCLC = test system: A549 NSCLC
OVCAR-3 ovarian = test system: OVCAR-3 ovarian
HT29 colon = test system: HT29 colon
SNB-19 CNS = test system: SNB-19 CNS
MOLT-4 leukemia = test system: MOLT-4 leukemia

Which results are given for `C/C(=C(/c1ccc(O)cc1)c1ccc(OCCN(C)C)cc1)c1ccc(Cl)cc1`?
GI50 (SF-295 CNS): 21 µM; TGI (SF-295 CNS): 42.1 µM; GI50 (SK-MEL-2 melanoma): 25.6 µM; TGI (SK-MEL-2 melanoma): 84.2 µM; GI50 (NCI-H226 lung): 54.5 µM; TGI (NCI-H226 lung): > 100 µM; GI50 (HOP-92 NSCLC): 22.3 µM; TGI (HOP-92 NSCLC): 90.3 µM; GI50 (UACC-62 melanoma): 18.5 µM; TGI (UACC-62 melanoma): 36.5 µM; GI50 (786-0 renal): 14.8 µM; TGI (786-0 renal): 29.5 µM; GI50 (CCRF-CEM leukemia): 25 µM; TGI (CCRF-CEM leukemia): 77.7 µM; GI50 (A498 renal): > 100 µM; TGI (A498 renal): > 100 µM; GI50 (NCI-H460 lung): 17.5 µM; TGI (NCI-H460 lung): 32.9 µM; GI50 (NCI/ADR-RES ovarian): 28.3 µM; TGI (NCI/ADR-RES ovarian): > 100 µM; GI50 (U251 CNS): 16.5 µM; TGI (U251 CNS): 31.9 µM; GI50 (MCF7 breast): 1.69 µM; TGI (MCF7 breast): 27.2 µM; GI50 (BT-549 breast): 40.9 µM; TGI (BT-549 breast): > 100 µM; GI50 (HS 578T breast): 20 µM; TGI (HS 578T breast): 75.9 µM; GI50 (KM12 colon): 25.6 µM; TGI (KM12 colon): 72.6 µM; GI50 (HCC-2998 colon): 18.1 µM; TGI (HCC-2998 colon): 35.1 µM; GI50 (DU-145 prostate): 34.3 µM; TGI (DU-145 prostate): > 100 µM; GI50 (SNB-75 CNS): 19.9 µM; TGI (SNB-75 CNS): > 100 µM; GI50 (MDA-MB-231 breast): 20.7 µM; TGI (MDA-MB-231 breast): 46.1 µM; GI50 (SK-MEL-28 melanoma): 16.7 µM; TGI (SK-MEL-28 melanoma): 31.5 µM; GI50 (OVCAR-8 ovarian): 31 µM; TGI (OVCAR-8 ovarian): > 100 µM; GI50 (SF-268 CNS): 36.3 µM; TGI (SF-268 CNS): > 100 µM; GI50 (CAKI-1 renal): 15.8 µM; TGI (CAKI-1 renal): 40.9 µM; GI50 (MDA-MB-435): 16.6 µM; TGI (MDA-MB-435): 31.4 µM; GI50 (PC-3 prostate): 23.7 µM; TGI (PC-3 prostate): 74.8 µM; GI50 (COLO 205 colon): 17.6 µM; TGI (COLO 205 colon): 33.1 µM; GI50 (EKVX NSCLC): 34.4 µM; TGI (EKVX NSCLC): > 100 µM; GI50 (T-47D breast): 12.2 µM; TGI (T-47D breast): 59.5 µM; GI50 (SF-539 CNS): 16.1 µM; TGI (SF-539 CNS): 30.1 µM; GI50 (HCT-15 colon): 18 µM; TGI (HCT-15 colon): 37.7 µM; GI50 (RPMI-8226 leukemia): 20.8 µM; TGI (RPMI-8226 leukemia): 54.5 µM; GI50 (UO-31 renal): 13.5 µM; TGI (UO-31 renal): 28.8 µM; GI50 (TK-10 renal): 79.7 µM; TGI (TK-10 renal): > 100 µM; GI50 (SK-MEL-5 melanoma): 17.8 µM; TGI (SK-MEL-5 melanoma): 33.5 µM; GI50 (UACC-257 melanoma): 16.9 µM; TGI (UACC-257 melanoma): 32.7 µM; GI50 (HOP-62 NSCLC): 18.2 µM; TGI (HOP-62 NSCLC): 38.7 µM; GI50 (HL-60(TB) leukemia): 17.9 µM; TGI (HL-60(TB) leukemia): 39.3 µM; GI50 (IGROV1 ovarian): 31.6 µM; TGI (IGROV1 ovarian): > 100 µM; GI50 (SK-OV-3 ovarian): 48.7 µM; TGI (SK-OV-3 ovarian): > 100 µM; GI50 (RXF 393 renal): 13.8 µM; TGI (RXF 393 renal): 28.1 µM; GI50 (HCT-116 colon): 14.8 µM; TGI (HCT-116 colon): 28.7 µM; GI50 (NCI-H522 lung): 17.4 µM; TGI (NCI-H522 lung): 38 µM; GI50 (K-562 leukemia): 19.6 µM; TGI (K-562 leukemia): 53.8 µM; GI50 (ACHN renal): 29.1 µM; TGI (ACHN renal): 89.4 µM; GI50 (LOX IMVI melanoma): 17.2 µM; TGI (LOX IMVI melanoma): 32.1 µM; GI50 (M14 melanoma): 17.6 µM; TGI (M14 melanoma): 35.3 µM; GI50 (MALME-3M melanoma): 16 µM; TGI (MALME-3M melanoma): 30.9 µM; GI50 (OVCAR-5 ovarian): 33.7 µM; TGI (OVCAR-5 ovarian): > 100 µM; GI50 (SN12C renal): 32.5 µM; TGI (SN12C renal): > 100 µM; GI50 (SW-620 colon): 16.2 µM; TGI (SW-620 colon): 31.7 µM; GI50 (SR leukemia): 18.8 µM; TGI (SR leukemia): 47.9 µM; GI50 (OVCAR-4 ovarian): 35.4 µM; TGI (OVCAR-4 ovarian): > 100 µM; GI50 (A549 NSCLC): 50.9 µM; TGI (A549 NSCLC): > 100 µM; GI50 (OVCAR-3 ovarian): 24 µM; TGI (OVCAR-3 ovarian): 69 µM; GI50 (HT29 colon): 16 µM; TGI (HT29 colon): 31.9 µM; GI50 (SNB-19 CNS): 21.4 µM; TGI (SNB-19 CNS): 51.1 µM; GI50 (MOLT-4 leukemia): 20 µM; TGI (MOLT-4 leukemia): 52.5 µM

— PubChem BioAssay (NCI)
